Experiments:
older males = assay: Effect of PS supplementation on serum and free testosterone of older males with exercise regimens; assay type: in vivo, human
Protocol: A. subject three, a physically active non smoking […] who took no prescription drugs or alcohol was the first subject. Starting on Day 1, the person consumed 600 mg of Phosphatidylserine (Chemi Nutra, Inc., White Bear Lake, Minn.) for 11 days accompanied by the following cardio and resistance workouts: • Day 1: lifted weights for 1.5 hours and intense cardio exercise, 12 minutes. • Day 2: intense cardio exercise for 28 minutes. • Day 3: easy pace walk, 1.5 mile. • Day 4: intense cardio exercise for 35 minutes. • Day 5: easy pace walk, 2 miles. • Day 6: lifted weights for 1.5 hours. • Days 7 and 8: rest, no exercise. • Day 9 intense cardio exercise, 35 minutes and 12 miles easy pace walk • Day 10: lifted weights 1.5 hours. Blood was drawn at 8:00 am on the first and eleventh day of the study and analyzed for serum and free testosterone by Life Extension National Diagnostics, Inc., Ft. Lauderdale, Fla. Serum testosterone rose from 575 nanograms per decilitier to 665 nanograms per deciliter, a 16% increase. B. The second subject (RJ) is a person. Starting on day 1, RJ consumed 400 mg PS daily for 11 days, accompanied by the following exercise regimens: • Day 2: bicycle ergometer for 30 minutes and elliptical trainer for 30 minutes. • Day 3: tennis singles match for 1.5 hours. • Day 4: treadmill 15 minutes and upper body resistance exercise for 1 hour. • Day 5: elliptical trainer for 45 minutes and resistance exercise for 30 minutes. • Day 6: rest. • Day 7: treadmill for 30 minutes; elliptical trainer for 30 minutes; resistance exercise for 30 minutes. • Day 8: rest. • Day 9: resistance exercise 1.5 hours. • Day 10 elliptical trainer for 1 hour. • Day 11: upper body resistance exercise for 30 minutes. Serum testosterone levels and free testosterone levels were measured on days 1 and 12. Serum testosterone increased from 290 nanograms/deciliter to 437 nanograms/deciliter, an increase of 51%. Free testosterone increased from 11.4 picograms/ml to 18.0 picograms/ml, an increase of 58%. C. The third subject is person one. The person consumed 300 mg PS (Chemi Nutra) daily for 11 days accompanied by a cardio and resistance training workout on days 2-11: • Day 2: 9 miles cycling for 35 minutes; 4 miles running for 40 minutes; 9 miles cycling for 40 minutes. • Day 3: tennis singles match for 1.5 hours. • Day 4: 9 miles cycling for 45 minutes; whole body resistance training for 1 hour; 9 miles cycling for 50 minutes. • Day 5: 9 miles cycling for 30 minutes; 5 miles running for 45 minutes; 9 miles cycling for 30 minutes • Day 6: rest. • Day 7: rest. • Day 8: resistance training 1.5 hours. • Day 9: 9 miles cycling for 50 minutes; upper body resistance exercise 1 hour; 9 miles cycling for 50 minutes. • Day 10: high-intensity resistance training for 30 minutes. • Day 11: 5 miles running for 50 minutes. Serum testosterone levels and free testosterone levels were measured on days 1 and 12. Serum testosterone increased from 734 nanograms/deciliter to 781 nanograms/deciliter, an increase of 6.4%. Free testosterone increased from 22.1 picograms/ml to 27.0 picograms/ml, an increase of 22%.

cortisol response [1] = settings: cited from earlier work
healthy male subjects = assay: Plasma testosterone response to moderate intensity cycle ergometer exercise after 10 days of oral PS or placebo (double-blind crossover); assay type: in vivo, human
Protocol: The purpose of the current study was to investigate the efficacy of short-term S-PS supplementation, at dosage levels less than the currently established dose, on testosterone response to acute moderate-intensity exercise. This study aimed to examine the influence of short-term supplementation with a moderate dose of PS (600 mg per day) on plasma concentrations of testosterone before, during, and following moderate intensity exercise in healthy males. 10 healthy male subjects participated in the study. Each subject was assigned to ingest 600 mg PS or placebo per day for 10 days using a double-blind, placebo-controlled, crossover design. Serial venous blood samples were taken at rest, after a 15 minute moderate intensity exercise protocol on a cycle ergometer that consisted of five 3-minute incremental stages beginning at 65% and ending at 85% VO2max, and during a 65 minute passive recovery. Plasma samples were assessed for testosterone for treatment (PS or placebo). PS increased AUC for testosterone to cortisol ratio (184±5%) when compared to placebo (p<0.05).
Subjects. Ten healthy males participated in this study. All subjects in this investigation participated in a familiarization session. During the familiarization session, subjects were informed as to the experimental procedures, completed a personal/medical history form, and signed informed consent statements in adherence with the human subject's guidelines of the American College of Sports Medicine. No subject in this trial was a vegetarian with all subjects reportedly consuming meat in their daily diet.
Each participant completed three testing sessions during the 21-day study. Participants performed a graded exercise test (starting at 50 W, increasing by 50 W increments every 2 minutes) on a cycle ergometer (Gary Fisher Tarpon OS Series Mountain Bike connected to a Computrainer Pro model 8002 RacerMate EBRA™ Approved System with software version 1.1.59) to assess maximal oxygen consumption (VO2max), and were scheduled for testing sessions 2 and 3 (day 11 and day 21). VO2max was determined using a Sensormedic V229 Metabolic System that was calibrated following the recommended technical guidelines (Sensormedics Corporation, Yorba Linda, Calif.). Upon completion of the VO2max test the participants were randomly assigned to one of two groups and received a 10-day supply of either the placebo or PS (600 mg per day of soy-derived PS).
The second and third exercise sessions were performed to determine testosterone responses to exercise induced stress at rest, during exercise, and recovery. On the tenth day of supplementation the participants ingested the last dose of the assigned substance (PS or placebo) and reported to the laboratory at 7 am after an overnight fast. Venous blood samples were taken on arrival (−30) and 30 minutes later, which was just prior to the start of exercise (0). Following the 30 minute rest period, the participants were asked to begin exercising on the cycle ergometer at an exercise intensity calculated to elicit 65% of VO2max. The intensity of exercise was increased automatically by 5% every 3-minute increment until the intensity was at 85% of VO2max (five-three minute stages). After cycling for a total of 15 minutes, the subject stopped exercising and a post-exercise venous blood sample was taken immediately. […]

cortisol response [2] = settings: 800 mg, cited from earlier work
[3] = subject one, 300 mg daily for 11 days
[4] = subject two, 400 mg daily for 11 days

phosphatidylserine [PS]
increase of free testosterone (older males; [3]): 22%
increase of serum testosterone (older males; [3]): 6.4%
free testosterone after treatment (older males; subject one, 300 mg daily for 11 days, day 12, day 1 22.1): 27.0 picograms/ml
serum testosterone after treatment (older males; subject one, 300 mg daily for 11 days, day 12, day 1 734): 781 nanograms/deciliter
increase of serum testosterone (older males; subject three, 600 mg for 11 days): 16%
serum testosterone after treatment (older males; subject three, 600 mg for 11 days, eleventh day, first day 575): 665 nanograms per deciliter
increase of free testosterone (older males; [4]): 58%
increase of serum testosterone (older males; [4]): 51%
free testosterone after treatment (older males; subject two, 400 mg daily for 11 days, day 12, day 1 11.4): 18.0 picograms/ml
serum testosterone after treatment (older males; subject two, 400 mg daily for 11 days, day 12, day 1 290): 437 nanograms/deciliter
cortisol response compared to placebo (cortisol response [1]; 400 mg): no significant result
lowering of cortisol response (cortisol response [1]; 800 mg supplementation): 30%
increase of AUC for testosterone to cortisol ratio compared to placebo (healthy male subjects; 600 mg PS per day oral for 10 days, 10 healthy males, p<0.05): 184±5%
increase of plasma testosterone concentrations compared with placebo (healthy male subjects; 600 mg/day S-PS for 10 days): 51±6%
plasma testosterone levels at the beginning of the exercise compared to placebo (healthy male subjects; 600 mg/day S-PS for 10 days): higher plasma testosterone levels
increase of testosterone area under the curve versus placebo (healthy male subjects; 600 mg/day S-PS for 10 days, FIG. 2, p=0.02): 37±5%
mean peak concentration of testosterone (healthy male subjects; 600 mg/day S-PS for 10 days, plasma, placebo 5.5±0.3, P (treatment) 0.13): 8.3 ± 1.7 ng/mL
reduction of cortisol response to intensive resistance training (cortisol response [2]): 20%
effect on testosterone levels (cortisol response [2]; intensive resistance training): no effect

Reference: patent US8124594B2, “Methods using phosphatidylserine, lysophosphatidylserine, and/or salts thereof to increase testosterone levels” (Chemi Nutra, LLC, priority 2007, dated 2012)
